Source: publication PMC10466336, “Chemical Probe for Imaging of Polo-like Kinase 4 and Centrioles” (JACS Au, 2023)

Molecular target: T1, GFP-Plk4(K41M) in transfected HeLa cells (Homo sapiens, UniProt O00444, K41M)
T1 construct: expressed in transfected cells; host or cells: HeLa
T1 sequence (O00444 1-970 K41M): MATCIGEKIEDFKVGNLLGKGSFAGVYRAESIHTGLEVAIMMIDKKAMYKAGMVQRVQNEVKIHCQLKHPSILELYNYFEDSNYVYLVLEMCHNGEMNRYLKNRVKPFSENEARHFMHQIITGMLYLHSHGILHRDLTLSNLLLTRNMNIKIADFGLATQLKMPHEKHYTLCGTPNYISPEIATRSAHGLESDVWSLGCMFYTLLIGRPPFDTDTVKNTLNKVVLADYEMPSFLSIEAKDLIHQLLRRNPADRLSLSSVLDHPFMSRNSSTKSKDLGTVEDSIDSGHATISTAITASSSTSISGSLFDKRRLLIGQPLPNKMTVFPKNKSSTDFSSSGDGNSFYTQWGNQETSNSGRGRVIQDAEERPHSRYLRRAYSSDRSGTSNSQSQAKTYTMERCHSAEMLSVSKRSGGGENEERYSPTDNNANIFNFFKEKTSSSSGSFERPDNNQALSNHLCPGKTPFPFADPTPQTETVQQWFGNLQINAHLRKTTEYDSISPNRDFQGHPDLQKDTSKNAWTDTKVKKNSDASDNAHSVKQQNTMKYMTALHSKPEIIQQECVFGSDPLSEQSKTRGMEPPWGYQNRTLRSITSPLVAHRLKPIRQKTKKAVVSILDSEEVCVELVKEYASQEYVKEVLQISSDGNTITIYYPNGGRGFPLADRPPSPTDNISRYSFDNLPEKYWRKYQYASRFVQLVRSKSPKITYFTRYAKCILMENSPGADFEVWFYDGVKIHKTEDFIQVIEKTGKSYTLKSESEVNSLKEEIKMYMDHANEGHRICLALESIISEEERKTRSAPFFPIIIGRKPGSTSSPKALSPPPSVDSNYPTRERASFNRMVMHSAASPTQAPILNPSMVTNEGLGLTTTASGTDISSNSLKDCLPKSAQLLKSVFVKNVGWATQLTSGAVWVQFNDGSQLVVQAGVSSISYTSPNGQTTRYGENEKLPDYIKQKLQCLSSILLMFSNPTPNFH
Test: Live-cell confocal/STED imaging of overexpressed Plk4
Format: cell-based
Conditions: Cen-TCO 500 nM 1 h, tetrazine 500 nM, no wash (Figure S6)

Cc1nnc(COc2cccc3c2C2(OC3=O)c3ccc(N(C)C)cc3[Si](C)(C)c3cc(N(C)C)ccc32)nn1 [HD653, reference compound]
unspecific signal among tetrazines after Cen-TCO labeling: lowest unspecific signal
